MIC and HC50 data for seven compounds are collected here from ChEMBL document CHEMBL5608163, “Structure modification of anoplin for fighting resistant bacteria” (Eur J Med Chem, 2024).

Broadly, the MIC is the lowest concentration that inhibits growth of the organism. The term HC50 denotes the concentration giving 50% haemolysis.

The structures appear in SMILES notation. Converted amounts (≈) assume the structure as drawn. Square brackets hold non-standard residues; d marks the D form. Peptide text beside a SMILES is read from it. * marks the point of attachment. Pentadecanoyl = CCCCCCCCCCCCCCC(=O)*; NMeI = CC[C@H](C)[C@H](NC)C(=O)O; NMeL = CN[C@@H](CC(C)C)C(=O)O; NMeK = CN[C@@H](CCCCN)C(=O)O; Nonanoyl = CCCCCCCCC(=O)*

Series [1] concerns Bacillus subtilis. Put plainly: Antimicrobial activity against Bacillus subtilis ATCC 23857 assessed as reduction in microbial growth incubated for 18 hrs by Mueller-Hinton Broth based microdilution assay. The series is classed as functional. For orientation: In broth dilution the organism is exposed to a series of concentrations in liquid medium.
In series [2] the test system is Klebsiella pneumoniae. Put plainly: Antimicrobial activity against Klebsiella pneumoniae ATCC 700603 assessed as reduction in microbial growth incubated for 18 hrs by Mueller-Hinton Broth based microdilution assay. The series is classed as functional.
In series [3] the test system is Pseudomonas aeruginosa. Put plainly: Antimicrobial activity against Pseudomonas aeruginosa ATCC 27853 assessed as reduction in microbial growth incubated for 18 hrs by Mueller-Hinton Broth based microdilution assay. The series is classed as functional.
The subject of series [4] is Staphylococcus aureus. Put plainly: Antibacterial activity against Staphylococcus aureus ATCC 25923 assessed as reduction in bacterial growth incubated for 18 hrs by Mueller-Hinton Broth based microdilution assay. The series is classed as functional.
The test system of series [5] is Escherichia coli. Put plainly: Antibacterial activity against Escherichia coli ATCC 25922 assessed as reduction in bacterial growth incubated for 18 hrs by Mueller-Hinton Broth based microdilution assay. The series is classed as functional.
Series [6] has as its system Staphylococcus aureus. Put plainly: Antibacterial activity against methicillin-resistant Staphylococcus aureus ATCC 33591 assessed as reduction in bacterial growth incubated for 18 hrs by agar dilution method. The series is classed as functional. A general note: In agar dilution the substance is mixed into plates at graded concentrations.
Series [7] concerns Enterococcus faecium. Put plainly: Antibacterial activity against vancomycin resistant Enterococcus faecium ATCC 700221 assessed as inhibition of bacterial growth incubated for 48 hrs by CLSI-based broth microdilution assay. The series is classed as functional.
Series [8] is described as follows: Hemolytic activity in human RBC assessed as hemolysis measured after 24 hrs. Format: toxicity, cell-based, Erythrocyte. As to conditions: red blood cells.
Series [9] deals with Staphylococcus aureus. Put plainly: Antibacterial activity against Staphylococcus aureus ATCC 25923 assessed as reduction in bacterial cell growth measured for 18 hrs by Mueller-Hinton broth based two-fold serial dilution method. The series is classed as functional.
In series [10] the test system is Bacillus subtilis. Put plainly: Antibacterial activity against Bacillus subtilis ATCC 23857 assessed as reduction in bacterial cell growth measured for 18 hrs by Mueller-Hinton broth based two-fold serial dilution method. Format: functional.
The test system of series [11] is Escherichia coli. Put plainly: Antibacterial activity against Escherichia coli ATCC 25922 assessed as reduction in bacterial cell growth measured for 18 hrs by Mueller-Hinton broth based two-fold serial dilution method. Format: functional.
Series [12] has as its system Pseudomonas aeruginosa. Put plainly: Antibacterial activity against Pseudomonas aeruginosa ATCC 27853 assessed as reduction in bacterial cell growth measured for 18 hrs by Mueller-Hinton broth based two-fold serial dilution method. The series is classed as functional.
Series [13] relates to Klebsiella pneumoniae. Put plainly: Antibacterial activity against Klebsiella pneumoniae ATCC 700603 assessed as reduction in bacterial cell growth measured for 18 hrs by Mueller-Hinton broth based two-fold serial dilution method. The series is classed as functional.

For the compound `CC[C@H](C)[C@H](NC(=O)[C@H](CCCNC(=N)N)NC(=O)[C@H](CCCCN)N(C)C(=O)[C@H](CC(C)C)NC(=O)[C@H](CC(C)C)NC(=O)CN)C(=O)N[C@@H](CCCCN)C(=O)N[C@H](C(=O)N[C@@H](CC(C)C)C(=O)N[C@@H](CC(C)C)C(N)=O)[C@@H](C)O` (H-GLL[NMeK]RIKTLL-NH2), the minimum inhibitory concentration (MIC) in [1] was 128 µM; in series [2], more than 128 µM; in series [3] it was 64 µM; in series [4], more than 128 µM; in [5], more than 128 µM.

Take `CC[C@H](C)[C@H](NC(=O)[C@H](CCCCN)NC(=O)[C@H](CCCCN)NC(=O)[C@H](CC(C)C)NC(=O)[C@H](CC(C)C)NC(=O)CN)C(=O)N[C@@H](CCCCN)C(=O)N[C@@H](Cc1c[nH]c2ccccc12)C(=O)N[C@@H](CC(C)C)C(=O)N[C@@H](CC(C)C)C(N)=O` (H-GLLKKIKWLL-NH2): the MIC came to 28.4 µM (≈ 34.4 µg/mL) in series [6] and 22.1 µM (≈ 26.8 µg/mL) in [7]. The HC50 at 24 h in [8] worked out at 152 µM.

Consider `CC[C@H](C)[C@H](NC(=O)[C@H](CCCNC(=N)N)NC(=O)[C@H](CCCCN)NC(=O)[C@H](CC(C)C)NC(=O)[C@H](CC(C)C)N(C)C(=O)CN)C(=O)N[C@@H](CCCCN)C(=O)N[C@H](C(=O)N[C@@H](CC(C)C)C(=O)N[C@@H](CC(C)C)C(N)=O)[C@@H](C)O` (H-G[NMeL]LKRIKTLL-NH2), for which the MIC in series [1] was 16 µM; in [2], more than 128 µM; in series [3], 32 µM; in series [4], more than 128 µM; in series [5] it was more than 128 µM.

As for `CCCCCCCCCCCCCCC(=O)NCC(=O)N[C@@H](CC(C)C)C(=O)N[C@@H](CC(C)C)C(=O)N[C@@H](CCCCN)C(=O)N[C@@H](CCCNC(=N)N)C(=O)N[C@H](C(=O)N[C@@H](CCCCN)C(=O)N[C@H](C(=O)N[C@@H](CC(C)C)C(=O)N[C@@H](CC(C)C)C(N)=O)[C@@H](C)O)[C@@H](C)CC` (Pentadecanoyl-GLLKRIKTLL-NH2), the MIC in series [9] was 16 µM (≈ 22 µg/mL); in series [10], 8 µM (≈ 11 µg/mL); in series [11], 16 µM (≈ 22 µg/mL); in series [12], 16 µM (≈ 22 µg/mL); in series [13], 32 µM (≈ 44.1 µg/mL).

For the compound `CC[C@H](C)[C@@H](C(=O)N[C@@H](CCCCN)C(=O)N[C@H](C(=O)N[C@@H](CC(C)C)C(=O)N[C@@H](CC(C)C)C(N)=O)[C@@H](C)O)N(C)C(=O)[C@H](CCCNC(=N)N)NC(=O)[C@H](CCCCN)NC(=O)[C@H](CC(C)C)N(C)C(=O)[C@H](CC(C)C)NC(=O)CN` (H-GL[NMeL]KR[NMeI]KTLL-NH2), the MIC in [1] is 128 µM; in [2], more than 128 µM; in series [3] it was more than 128 µM; in series [4], more than 128 µM; in series [5], more than 128 µM.

In the case of `CCCCCCCCC(=O)NCC(=O)N[C@@H](CC(C)C)C(=O)N[C@@H](CC(C)C)C(=O)N[C@@H](CCCCN)C(=O)N[C@@H](CCCNC(=N)N)C(=O)N[C@H](C(=O)N[C@@H](CCCCN)C(=O)N[C@H](C(=O)N[C@@H](CC(C)C)C(=O)N[C@@H](CC(C)C)C(N)=O)[C@@H](C)O)[C@@H](C)CC` (Nonanoyl-GLLKRIKTLL-NH2), the MIC was found to be 8 µM (≈ 10.4 µg/mL) in [9]; 4 µM (≈ 5.18 µg/mL) in series [10]; 8 µM (≈ 10.4 µg/mL) in [11]; 8 µM (≈ 10.4 µg/mL) in [12]; 16 µM (≈ 20.7 µg/mL) in series [13].

Consider `CC[C@H](C)[C@H](NC(=O)[C@H](CCCNC(=N)N)NC(=O)[C@H](CCCCN)NC(=O)[C@H](CC(C)C)N(C)C(=O)[C@H](CC(C)C)NC(=O)CN)C(=O)N[C@@H](CCCCN)C(=O)N[C@H](C(=O)N[C@@H](CC(C)C)C(=O)N[C@@H](CC(C)C)C(N)=O)[C@@H](C)O` (H-GL[NMeL]KRIKTLL-NH2), for which the MIC is 64 µM in series [1]; more than 128 µM in series [2]; 64 µM in series [3]; more than 128 µM in series [4]; more than 128 µM in series [5].
